Measured values published in patent EP0800516B1, “FIBRINOGEN RECEPTOR ANTAGONISTS HAVING SUBSTITUTED (b)-AMINO ACID RESIDUES AND PHARMACEUTICAL COMPOSITIONS COMPRISING THE SAME” (Nippon Steel Corporation, priority 1994, dated 1996).

System: Human Platelet Aggregation
Test: in vitro human platelet aggregation using PRP (collagen-induced, light transmittance)
Assay type: cell-based
Settings: aggregation induced with collagen (final concentration: 5 µ g/ml), 37°C
Source text: (Measurement of in vitro Human Platelet Aggregation using PRP)
Healthy male volunteers who had not taken any medicines for at least two weeks were selected as subjects. Blood was collected from the forearm vein of each subject on an empty stomach using a #19 needle and a plastic syringe preliminarily charged with 1/10 volume of a 3.8% sodium citrate solution. Immediately after the blood collection, the syringe was shaken gently to mix the blood with the sodium citrate solution. The mixed blood was centrifuged (1100 rpm, 250 g) at room temperature for 15 minutes and the rotation was stopped without applying the brake. Then, the supernatant was collected with a Komagome type pipette to obtain platelet-rich plasma (PRP). The PRP was stored at room temperature. The blood remaining after centrifuging was further centrifuged (3500 rpm, 1500 g) at room temperature for 15 minutes and the rotation was stopped without applying the brake. The supernatant was collected to obtain platelet-poor plasma (PPP). After the preparation of the PRP, the number of platelets was counted and only samples containing more than 2 x 10^8 of platelets per milliliter were subjected to the following experiments.
Platelet aggregation was measured using an 8-channel platelet aggregation measuring instrument (Hematracer, Nikoh Bioscience, Tokyo, Japan) on the basis of the change in light transmittance through the PRP. First, the PPP and PRP (each 200µl) were placed in glass cuvettes and incubated at 37°C . Thereafter, the transmittance was measured. The transmittance of the PPP was determined as 100% and that of the PRP as 0%. Then, 10µl of physiological saline or a sample-containing physiological saline was added to the PRP and incubated at 37°C for one minute. A collagen solution (10 µ l) at a concentration of […] was added (final concentration: 5 µ g/ml) to induce aggregation and thereafter the transmittance was measured over 7 minutes. After aggregation with collagen and ADP was confirmed, only those samples in which the maximum aggregation with collagen was at least 70% were subjected to the experiment.
The sample was dissolved in physiological saline to give a concentration of 2.2 x 10 ^-2 M and a 2-fold dilution series was prepared for use in the experiments. The samples insoluble in the physiological saline were dissolved in physiological saline containing 10% DMSO (dimethyl sulfoxide).
The results were calculated as follows: [formula]
A graph was constructed by plotting the percent aggregation inhibition against the sample concentration and the concentration at which the aggregation was inhibited by 50% (IC50) was calculated from the graph.

## CC(NC(=O)c1ccc(C(=N)N)cc1)C(C)(C)C(=O)N1CCC(CC(=O)O)CC1 (stereo not drawn) [Example 22, N-(N-4-amidinobenzoyl-β-methyl-α,α-dimethyl-β-alanyl)-4-piperidineacetic acid]
  IC50: 520 nM

## CC(C)(C(=O)N1CCN(CC(=O)O)CC1)C(NC(=O)c1ccc(C(=N)N)cc1)c1ccccc1 (stereo not drawn) [Example 23, N-(N-4-amidinobenzoyl-β-phenyl-α,α-dimethyl-β-alanyl)-4-piperazineacetic acid]
  IC50: 620 nM

## CC(C)CC(NC(=O)c1ccc(C(=N)N)cc1)C(C)(C)C(=O)N1CCC(CC(=O)O)CC1 (stereo not drawn) [Example 24, N-(N-4-amidinobenzoyl-β-i-butyl-α,α-dimethyl-β-alanyl)-4-piperidineacetic acid]
  IC50: 80 nM

## CC(C)(C(=O)N1CCC(CC(=O)O)CC1)C(NC(=O)c1ccc(C(=N)N)cc1)c1ccc(Cl)cc1 (stereo not drawn) [Example 25, N-(N-4-amidinobenzoyl-β-p-chlorophenyl-α,α -dimethyl-β-alanyl)-4-piperidineacetic acid]
  IC50: 480 nM

## COc1ccccc1C(NC(=O)c1ccc(C(=N)N)cc1)C(C)(C)C(=O)N1CCC(CC(=O)O)CC1 (stereo not drawn) [Example 26, N-(N-4-amidinobenzoyl-β-o-methoxyphenyl-α, α-dimethyl-β-alanyl)-4-piperidineacetic acid]
  IC50: 340 nM

## CC(C)(C(=O)N1CCC(CC(=O)O)CC1)C(NC(=O)c1ccc(C(=N)N)cc1)c1ccc(O)cc1 (stereo not drawn) [Example 27, N-(N-4-amidinobenzoyl-β-p-hydroxyphenyl-α, α-dimethyl-β-alanyl)-4-piperidineacetic acid]
  IC50: 200 nM

## CC(C)(C(=O)N1CCC(CC(=O)O)CC1)C(NC(=O)c1ccc(C(=N)N)cc1)c1cccc(O)c1 (stereo not drawn) [Example 28, N-(N-4-amidinobenzoyl-β-m-hydroxyphenyl-α, α-dimethyl-β-alanyl)-4-piperidineacetic acid]
  IC50: 76 nM

## CC=CC(NC(=O)c1ccc(C(=N)N)cc1)C(C)(C)C(=O)N1CCC(CC(=O)O)CC1 (stereo not drawn) [Example 29, N-(N-4-amidinobenzoyl-β-1-propenyl-α,α-dimethyl-β-alanyl)-4-piperidineacetic acid]
  IC50: 100 nM

## CCCCC(NC(=O)c1ccc(C(=N)N)cc1)C1(C(=O)N2CCC(CC(=O)O)CC2)CCCCC1 (centres unmarked) [Example 30, N-(((N-4-amidinobenzoyl)-1-amino)-1-pentyl-1-cyclohexane-carbonyl)-4-piperidineacetic acid]
  IC50: 160 nM

## CN(C)c1ccc(C(NC(=O)c2ccc(C(=N)N)cc2)C(C)(C)C(=O)N2CCC(CC(=O)O)CC2)cc1 (stereo not drawn) [Example 31, N-(N-4-amidinobenzoyl-β-p-N,N-dimethylaminophenyl-α, α-dimethyl-β-alanyl)-4-piperidineacetic acid]
  IC50: 470 nM

## CCCCc1ccc(C(NC(=O)c2ccc(C(=N)N)cc2)C(C)(C)C(=O)N2CCC(CC(=O)O)CC2)cc1 (stereo not drawn) [Example 32, N-(N-4-amidinobenzoyl-β-p-n-butylphenyl-α, α-dimethyl-β-alanyl)-4-piperidineacetic acid]
  IC50: 150 nM

## CCCCC(NC(=O)c1ccc(C(=N)N)cc1F)C(C)(C)C(=O)N1CCC(CC(=O)O)CC1 (stereo not drawn) [Example 33, N-(N-4-amidino-2-fluorobenzoyl-β-n-butyl-α ,α-dimethyl-β-alanyl)-4-piperidineacetic acid]
  IC50: 73 nM

## CC(C)(C(=O)N1CCC(CC(=O)O)CC1)C(NC(=O)c1ccc(C(=N)N)cc1Cl)c1ccccc1 (stereo not drawn) [Example 34, N-(N-4-amidino-2-chlorobenzoyl-β-phenyl-α, α-dimethyl-β-alanyl)-4-piperidineacetic acid]
  IC50: 360 nM

## CC(C)(C(=O)N1CCC(CC(=O)O)CC1)C(CCc1cccc(O)c1)NC(=O)c1ccc(C(=N)N)cc1 (stereo not drawn) [Example 37, N-(N-4-amidinobenzoyl-β-m-hydroxyphenethyl-α, α-dimethyl-β-alanyl)-4-piperidineacetic acid]
  IC50: 190 nM

## C#CC(NC(=O)c1ccc(C(=N)N)cc1)C(C)(C)C(=O)N1CCC(CC(=O)O)CC1 (stereo not drawn) [Example 38, N-(N-4-amidinobenzoyl-β-ethynyl-α,α-dimethyl-β-alanyl)-4-piperidineacetic acid]
  IC50: 150 nM

## CCC(NC(=O)c1ccc(C(=N)N)cc1F)C(C)(C)C(=O)N1CCC(CC(=O)O)CC1 (stereo not drawn) [Example 39, N-(N-4-amidino-2-fluorobenzoyl-β-ethyl-α, α-dimethyl-β-alanyl)-4-piperidineacetic acid]
  IC50: 61 nM

## CC(NC(=O)c1ccc(C(=N)N)cc1F)C(C)(C)C(=O)N1CCC(CC(=O)O)CC1 (stereo not drawn) [Example 40, N-(N-4-amidino-2-fluorobenzoyl-β-methyl-α, α-dimethyl-β-alanyl)-4-piperidineacetic acid]
  IC50: 75 nM
